According to patent US7812021B2, “Pyrrolidine aryl-ether as NK3 receptor antagonists” (Hoffmann-La Roche Inc., priority 2007, dated 2010):

molecular target: T1, recombinant human NK3 receptor (Homo sapiens, UniProt P29371); assay: [3H]SR142801 competition binding assay; settings: membranes from HEK293 cells transiently expressing recombinant human NK3 receptor; [3H]SR142801 radioligand; Ki by Cheng-Prussoff
T1 construct: expressed in transfected cells; host or cells: HEK293 cells, transient expression; membranes
T1 sequence (P29371 1-465): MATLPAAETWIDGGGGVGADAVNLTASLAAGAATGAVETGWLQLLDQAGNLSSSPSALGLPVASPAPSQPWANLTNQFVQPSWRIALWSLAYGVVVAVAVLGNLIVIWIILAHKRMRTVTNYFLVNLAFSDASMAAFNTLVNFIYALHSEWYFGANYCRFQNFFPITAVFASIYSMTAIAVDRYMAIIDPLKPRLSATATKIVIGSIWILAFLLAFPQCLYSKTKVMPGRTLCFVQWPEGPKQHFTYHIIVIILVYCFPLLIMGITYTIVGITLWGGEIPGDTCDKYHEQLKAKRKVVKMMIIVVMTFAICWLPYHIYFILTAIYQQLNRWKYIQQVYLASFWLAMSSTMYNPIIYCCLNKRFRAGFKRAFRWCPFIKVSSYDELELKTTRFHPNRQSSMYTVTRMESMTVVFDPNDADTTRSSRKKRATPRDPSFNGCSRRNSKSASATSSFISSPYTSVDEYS
Method: [^3H]SR142801 Competition Binding Assay
hNK3 receptor binding experiment were performed using [^3H]SR142801 (Catalog No. TRK1035, specific activity: 74.0 Ci/mmol, Amersham, GE Healthcare UK limited, Buckinghamshire, UK) and membrane isolated from HEK293 cells transiently expressing recombinant human NK3 receptor. After thawing, the membrane homogenates were centrifuged at 48,000×g for 10 min at 4° C., the pellets were resuspended in the 50 mM Tris-HCl, 4 mM MnCl2, 1 μM phosphoramidon, 0.1% BSA binding buffer at pH 7.4 to a final assay concentration of 5 μg protein/well. For inhibition experiments, membranes were incubated with [^3H]SR142801 at a concentration equal to KD value of radioligand and 10 concentrations of the inhibitory compound (0.0003-10 μM) (in a total reaction volume of 500 μl) for 75 min at room temperature (RT). At the end of the incubation, membranes were filtered onto unit filter (96-well white microplate with bonded GF/C filter preincubated 1 h in 0.3% PEI+0.3% BSA, Packard BioScience, Meriden, Conn.) with a Filtermate 196 harvester (Packard BioScience) and washed 4 times with ice-cold 50 mM Tris-HCl, pH 7.4 buffer. Nonspecific binding was measured in the presence of 10 μM SB222200 for both radioligands. The radioactivity on the filter was counted (5 min) on a Packard Top-count microplate scintillation counter with quenching correction after addition of 45 μl of microscint 40 (Canberra Packard S. A., Zürich, Switzerland) and shaking for 1 h. Inhibition curves were fitted according to the Hill equation: y=100/(1+(x/IC50)^nH), where nH=slope factor using Excel-fit 4 software (Microsoft). IC50 values were derived from the inhibition curve and the affinity constant (Ki) values were calculated using the Cheng-Prussoff equation Ki=IC50/(1+[L]/KD) where [L] is the concentration of radioligand and KD is its dissociation constant at the receptor, derived from the saturation isotherm. All experiments were performed in duplicate and the mean±standard error (SEM) of the individual Ki values was calculated.

SMILES | Ki [nM]
C[C@@H]1CN(C(=O)N2C[C@@H]([C@@H](C)Oc3ccc(C(F)(F)F)cc3)[C@H](c3ccc(Cl)c(Cl)c3)C2)CCN1S(C)(=O)=O (mixture of isomers) [Example 27, {(3RS,4SR)-3-(3,4-Dichloro-phenyl)-4-[(RS)-1-(4-trifluoromethyl-phenoxy)-ethyl]-pyrrolidin-1-yl}-((R)-4-methanesulfonyl-3-methyl-piperazin-1-yl)-methanone] | 9.6
C[C@@H](Oc1ccc(Cl)cc1)[C@@H]1CN(C(=O)N2CCN(S(C)(=O)=O)CC2)C[C@H]1c1ccc(Cl)c(Cl)c1 (mixture of isomers) [Example 36, [(3SR,4RS)-3-[(R)-1-(4-Chloro-phenoxy)-ethyl]-4-(3,4-dichloro-phenyl)-pyrrolidin-1-yl]-(4-methanesulfonyl-piperazin-1-yl)-methanone] | 21.1
C[C@@H]1CN(C(=O)N2C[C@@H]([C@@H](C)Oc3ccc(Cl)cn3)[C@H](c3ccc(Cl)c(Cl)c3)C2)CCN1S(C)(=O)=O (mixture of isomers) [Example 54, [(3SR,4RS)-3-[(RS)-1-(5-Chloro-pyridin-2-yloxy)-ethyl]-4-(3,4-dichloro-phenyl)-pyrrolidin-1-yl]-((R)-4-methanesulfonyl-3-methyl-piperazin-1-yl)-methanone] | 2
C[C@@H](Oc1ccc(C(F)(F)F)cc1)[C@@H]1CN(C(=O)N2CCN(S(C)(=O)=O)CC2)C[C@H]1c1ccc(Cl)c(Cl)c1 (racemic) [Example 16, {(3RS,4SR)-3-(3,4-Dichloro-phenyl)-4-[(RS)-1-(4-trifluoromethyl-phenoxy)-ethyl]-pyrrolidin-1-yl}-(4-methanesulfonyl-piperazin-1-yl)-methanone] | 28.8
C[C@H](Oc1ccc(C(F)(F)F)cc1)[C@@H]1CN(C(=O)N2CCN(S(C)(=O)=O)CC2)C[C@H]1c1ccc(Cl)c(Cl)c1 (racemic) [Example 17, {(3RS,4SR)-3-(3,4-Dichloro-phenyl)-4-[(SR)-1 (4-trifluoromethyl-phenoxy)-ethyl]-pyrrolidin-1-yl}-(4-methanesulfonyl-piperazin-1-yl)-methanone] | 46.8
C[C@@H](Oc1ccc(C(F)(F)F)cc1)[C@@H]1CN(C(=O)N2CCC(N(C)S(C)(=O)=O)CC2)C[C@H]1c1ccc(Cl)c(Cl)c1 (racemic) [Example 18, N-(1-{(3RS,4SR)-3-(3,4-Dichloro-phenyl)-4-[(RS)-1-(4-trifluoromethyl-phenoxy)-ethyl]-pyrrolidine-1-carbonyl}-piperidin-4-yl)-N-methyl-methanesulfonamide] | 77.9
C[C@@H](Oc1ccc(C(F)(F)F)cc1)[C@@H]1CN(C(=O)CN2CCC(N(C)S(C)(=O)=O)CC2)C[C@H]1c1ccc(Cl)c(Cl)c1 (racemic) [Example 20, N-[1-(2-{(3RS,4SR)-3-(3,4-Dichloro-phenyl)-4-[(RS)-1-(4-trifluoromethyl-phenoxy)-ethyl]-pyrrolidin-1-yl}-2-oxo-ethyl)-piperidin-4-yl]-N-methyl-methanesulfonamide] | 59.5
CC(=O)N1CCN(CC(=O)N2C[C@@H]([C@@H](C)Oc3ccc(C(F)(F)F)cc3)[C@H](c3ccc(Cl)c(Cl)c3)C2)CC1 (racemic) [Example 24, 2-(4-Acetyl-piperazin-1-yl)-1-{(3RS,4SR)-3-(3,4-dichloro-phenyl)-4-[(RS)-1-(4-trifluoromethyl-phenoxy)-ethyl]-pyrrolidin-1-yl}-ethanone] | 58.9
CC(=O)NC1CCN(CC(=O)N2C[C@@H]([C@@H](C)Oc3ccc(C(F)(F)F)cc3)[C@H](c3ccc(Cl)c(Cl)c3)C2)CC1 (racemic) [Example 25, N-[1-(2-{(3RS,4SR)-3-(3,4-Dichloro-phenyl)-4-[(RS)-1-(4-trifluoromethyl-phenoxy)-ethyl]-pyrrolidin-1-yl}-2-oxo-ethyl)-piperidin-4-yl]-acetamide] | 59.7
C[C@@H](Oc1ccc(Cl)c(Cl)c1)[C@@H]1CN(C(=O)N2CCN(S(C)(=O)=O)CC2)C[C@H]1c1ccc(Cl)c(Cl)c1 (racemic) [Example 30, [(3SR,4RS)-3-[(RS)-1-(3,4-Dichloro-phenoxy)-ethyl]-4-(3,4-dichloro-phenyl)-pyrrolidin-1-yl]-(4-methanesulfonyl-piperazin-1-yl)-methanone] | 79.6
C[C@@H](Oc1ccc(Cl)cn1)[C@@H]1CN(C(=O)N2CCN(S(C)(=O)=O)CC2)C[C@H]1c1ccc(Cl)c(Cl)c1 (racemic) [Example 39, [(3SR,4RS)-3-[(RS)-1-(5-Chloro-pyridin-2-yloxy)-ethyl]-4-(3,4-dichloro-phenyl)-pyrrolidin-1-yl]-(4-methanesulfonyl-piperazin-1-yl)-methanone] | 2.9
C[C@@H](Oc1ccc(F)c(Cl)c1)[C@@H]1CN(C(=O)N2CCN(S(C)(=O)=O)CC2)C[C@H]1c1ccc(Cl)c(Cl)c1 (racemic) [Example 41, [(3SR,4RS)-3-[(RS)-1-(3-Chloro-4-fluoro-phenoxy)-ethyl]-4-(3,4-dichloro-phenyl)-pyrrolidin-1-yl]-(4-methanesulfonyl-piperazin-1-yl)-methanone] | 49
C[C@@H](Oc1ncccn1)[C@@H]1CN(C(=O)N2CCN(S(C)(=O)=O)CC2)C[C@H]1c1ccc(Cl)c(Cl)c1 (racemic) [Example 42, [(3RS,4SR)-3-(3,4-Dichloro-phenyl)-4-[(RS)-1-(pyrimidin-2-yloxy)-ethyl]-pyrrolidin-1-yl}-(4-methanesulfonyl-piperazin-1-yl)-methanone] | 69.9

Next, values leading:

Ki [nM] | SMILES
58.9 | Cc1ccc(O[C@H](C)[C@@H]2CN(C(=O)N3CCN(S(C)(=O)=O)CC3)C[C@H]2c2ccc(Cl)c(Cl)c2)cc1 (racemic) [Example 31, [(3RS,4SR)-3-(3,4-Dichloro-phenyl)-4-((RS)-1-p-tolyloxy-ethyl)-pyrrolidin-1-yl]-(4-methanesulfonyl-piperazin-1-yl)-methanone]
75.6 | C[C@@H](Oc1ccc(C#N)cc1)[C@@H]1CN(C(=O)N2CCN(S(C)(=O)=O)CC2)C[C@H]1c1ccc(Cl)c(Cl)c1 (racemic) [Example 33, 4-{(RS)-1-[(3SR,4RS)-4-(3,4-Dichloro-phenyl)-1-(4-methanesulfonyl-piperazine-1-carbonyl)-pyrrolidin-3-yl]ethoxy}-benzonitrile]
40.1 | C[C@@H](Oc1ccc(F)cc1)[C@@H]1CN(C(=O)N2CCN(S(C)(=O)=O)CC2)C[C@H]1c1ccc(Cl)c(Cl)c1 (racemic) [Example 34, {(3RS,4SR)-3-(3,4-Dichloro-phenyl)-4-[(RS)-1-(4-fluoro-phenoxy)-ethyl]-pyrrolidin-1-yl}-(4-methanesulfonyl-piperazin-1-yl)-methanone]
95.4 | C[C@H](Oc1ccc(C#N)cc1)[C@@H]1CN(C(=O)N2CCN(S(C)(=O)=O)CC2)C[C@H]1c1ccc(Cl)c(Cl)c1 (racemic) [Example 45, 4-{(SR)-1-[(3SR,4RS)-4-(3,4-Dichloro-phenyl)-1-(4-methanesulfonyl-piperazine-1-carbonyl)-pyrrolidin-3-yl]-ethoxy}-benzonitrile]
49.7 | C[C@H](Oc1ccc(F)cc1)[C@@H]1CN(C(=O)N2CCN(S(C)(=O)=O)CC2)C[C@H]1c1ccc(Cl)c(Cl)c1 (racemic) [Example 46, {(3RS,4SR)-3-(3,4-Dichloro-phenyl)-4-[(SR)-1-(4-fluoro-phenoxy)-ethyl]-pyrrolidin-1-yl}-(4-methanesulfonyl-piperazin-1-yl)-methanone]
